Measurements published in patent publication US20070190628A1, “Yeast food composition for fuel ethanol production” (priority 2006, published 2007).

Key:
Type in all cases: cell-based, Saccharomyces cerevisiae
[1] = test system: active dry yeast “z”; assay: Fermentation of normal gravity corn mash with nutrient supplements (Example 4)
Description: (§1) The effects of the optimized defined urea plus salts-based nutrient supplement, i.e., defined yeast food, developed in Example 3 for corn mash fermentations, were assessed by comparisons of fermentation rates and ethanol production in normal gravity corn mashes and very high gravity corn mashes that were (a) supplemented with 16 mM urea only, or (b) yeast extract, or (c) supplemented with 16 mM urea plus the defined yeast food from Example 3 which in this set of studies, contained 1.6 g/L (NH4)2HPO4, 0.32 g/L (NH4)2SO4, 0.049 g/L MgSO4.7H2O, and 0.273 mg/L ZnSO4.7H2O.
(§2) Normal density corn mashes were prepared as described in Example 1 and were determined to contain about 18-20 g dissolved solids per 100 mL mash as determined by density meter analysis. […] The mash thus prepared contained 30-32 g of dissolved solids/100 mL as determined by density meter analysis. […]
(§3) Each study was commenced by removing fermentors containing either normal gravity corn mash or very high gravity corn mash from 4° C. storage, connecting them to 30° C. water bath circulators and continually mixing the corn mash contents therein until the temperature of each mash was 30° C. […] Fermentation performance in all treatments was assessed by repeated sampling and analyses of the mashes during the fermentation periods as described in Example 1.

[2] = test system: active dry yeast “z”; assay: Fermentation of very high gravity corn mash with nutrient supplements (Example 4)
Description: as §1, §2, §3

[3] = test system: active dry yeast “b”; assay: Fermentation performance of commercial active dry yeasts in normal gravity corn mash; settings: strain “b”
Description: (§4) The effects of the defined urea plus salts-based yeast food on fermentation performance of seven commercial active dry yeasts currently used by the fuel alcohol industry (Bellisimi et al., 2005, Am. Soc. Brew. Chem. J. Vol. 63, pp. 107-112) and designated herein as strains “b”, “d”, “e”, “w”, “x”, “y”, and “z”, were assessed in normal gravity corn mash prepared as described in Example 1. The commercial active dry yeasts were assessed with the following corn mash supplanted as follows: (a) 8 mM urea (control), or (b) 1% yeast extract, or (c) 8 mM urea supplemented with the defined urea plus salts yeast food of the present invention. The fermentation methods were followed as outlined in Example 4. Fermentation rates were determined by repeated sampling and sample processing at specific time intervals as described in Example 1.

[4] = test system: active dry yeast “d”; assay: as above; settings: strain “d”
Description: as §4

[5] = test system: active dry yeast “e”; assay: as above; settings: strain “e”
Description: as §4

[6] = test system: active dry yeast “w”; assay: as above; settings: strain “w”
Description: as §4

[7] = test system: active dry yeast “x”; assay: as above; settings: strain “x”
Description: as §4

[8] = test system: active dry yeast “y”; assay: as above; settings: strain “y”
Description: as §4

[9] = test system: active dry yeast “z”; assay: as above; settings: strain “z”
Description: as §4

[10] = complete disappearance of 20 g of dissolved solids/100 mL

NC(N)=O [urea]
fermentation period required to complete fermentation (disappearance of dissolved solids) [1]: 48 h
time after which fermentation became “stuck” [2]: 72 h
Fermentation rate ([3]; normal gravity corn mash): 0.73 ± 0.04 g/100 mL/hr
Fermentation time [3, 10]: 72 h
Fermentation rate ([4]; normal gravity corn mash): 0.74 ± 0.03 g/100 mL/hr
Fermentation time [4, 10]: 48 h
Fermentation rate ([5]; normal gravity corn mash): 0.67 ± 0.01 g/100 mL/hr
Fermentation time [5, 10]: 72 h
Fermentation rate ([6]; normal gravity corn mash): 0.82 ± 0.02 g/100 mL/hr
Fermentation time [6, 10]: 48 h
Fermentation rate ([7]; normal gravity corn mash): 0.80 ± 0.06 g/100 mL/hr
Fermentation time [7, 10]: 48 h
Fermentation rate ([8]; normal gravity corn mash): 0.83 ± 0.01 g/100 mL/hr
Fermentation time [8, 10]: 48 h
Fermentation rate ([9]; normal gravity corn mash): 0.79 ± 0.01 g/100 mL/hr
Fermentation time [9, 10]: 48 h
